“Also recorded” adds a separate entry of the source.
Legend:
[1] = tested on: oxidised RBC uptake by HMDM; experiment: Efferocytosis assay: uptake of oxidised RBC by human monocyte derived macrophages; assay type: cell-based; details: RBC oxidised with CuSO4/ascorbic acid, 3 h assay, mannan 10 mg/ml, chitin 50 μg/ml, laminarin 10 μg/ml, anti-CD206 clone 15.2 10 μg/ml applied 60 min before, siRNA against MRC-1
Method: RBC and SHSy5y neuronal cells were incubated with copper sulphate (CuSO4, 0.2 mM) and ascorbic acid (5 mM) for 60 minutes (RBC) or 30 minutes (SHSy5y) at 37° C. in DMEM with 4.5 g/L glucose. Cells were then washed in PBS three times prior to assays.
(§1) For clear identification of efferocytosis by microscopy, RBC were stained with cell trace far red (CTFR; Molecular Probes) according to manufacturer's instructions. RBC were added to HMDM at 5×10^7 cells per well for three hours before gentle removal and fixation with 4% paraformaldehyde. To identify cells bound but not and ingested by HMDM the cells were stained with anti-glycophorin A/B FITC (HIR2, Biolegend).
(§2) Ligand binding of CD206 was blocked with antibody clone 15.2 (10 μg/ml; BioLegend) by adding antibody or isotype control (10 μg/ml mouse IgG1 kappa clone 107.3, BD Biosciences) for 60 minutes prior to three hour efferocytosis assay and were not removed.
(§3) Mannan (10 mg/ml), chitin (50 μg/ml) and laminarin (10 μg/ml; all Sigma Aldrich) were applied for 60 minutes prior to three hour efferocytosis/phagocytosis assay and were not removed.
(§4) Cells were imaged at 32 times magnification using Immuno-Fluorescent Microscope (Zeiss).
To access percentage MR positive spindle/small round macrophages, anti-MR antibody (unlabelled clone 19.2) was stained with anti-mouse PE secondary antibody. Only spindle/small round macrophage population was examined as this is the subpopulation that expresses MR in wild type macrophages. SiRNA ([…], antisense, concentration Life Technologies) against mannose receptor (MRC-1) in humans was transfected into primary macrophages (RNAiMax, Life Technologies). (n=4 donors for all SiRNA experiments. Autologous red blood cells were used with macrophages.) Mannose receptor expression was established by microscopy using MR-Alexa-488 staining (described above) in the small non-granular macrophage sub-population by merging bright field and mannose receptor fluorescence staining.

[2] = tested on: uptake of RBC from patients with SCD (HbSS) by HMDM; experiment: Efferocytosis assay: uptake of RBC from patients with SCD by HMDM; assay type: cell-based, human; details: 3 h assay, mannan 10 mg/ml, chitin 50 μg/ml, anti-CD206 10 μg/ml
Method: as §1, §2, §3, §4

[3] = tested on: untreated RBC uptake by HMDM; experiment: Efferocytosis assay: uptake of untreated RBC by HMDM; assay type: cell-based, human; details: 3 h assay
Method: as §1, §3, §4

[4] = biological target: T1, Galanthus nivalis lectin (GNA) (Galanthus nivalis, UniProt P30617); experiment: Flow cytometry blockade of GNA lectin binding to the RBC surface; details: oxidised / SCD RBC; lectin pre-incubated with mannan 5 mg/ml for 15 min
T1 construct: purchased Vector Laboratories B1245
T1 sequence (P30617 24-128 limits assumed): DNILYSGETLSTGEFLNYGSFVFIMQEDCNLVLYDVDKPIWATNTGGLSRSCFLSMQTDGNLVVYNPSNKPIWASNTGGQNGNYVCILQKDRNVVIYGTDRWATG
Method: RBC, approximately 5×10^6 per test, were washed three times in PBS, and then incubated in calcium buffer with biotinylated GNA (4 μg/ml, Vector Laboratories, B1245) or in PBS for PNA-FITC (2 μg/ml Sigma Aldrich L7381) for 30 minutes in calcium buffer at room temperature (protected from light). Cells were then washed and incubated with streptavidin PE-Cy7 (0.27 μg/ml; eBioscience) or PE (0.67 μg/ml; BD Pharmingen) for 30 min at room temperature. Cells were washed and analysed.
(§5) For blockade testing, Lectin or FC fusion were pre-incubated with mannan (5 mg/ml, unless otherwise stated) for 15 minutes at room temperature. Mixture of mannan and Lectin or FC fusion was then incubated with washed RBC and compared to binding of Lectin or FC fusion without mannan.
(§6) Samples were acquired on FACSCalibur (BD) and analysed using FlowJo v10.0 (Treestar) software. The normalised geomean was calculated by subtracting the geomean of the secondary only paired controls. For PNA-FITC analysis, normalised geomean was calculated by subtracting geomean of unstained RBC (PBS incubation) control.

[5] = tested on: phagocytosis of beads by HMDM; experiment: Bead phagocytosis assay with HMDM (control); assay type: cell-based, human; details: 3 h
Method: Coumarin stained Fluoresbrite microparticles (8 μm; Polysciences, Inc.) were added to HMDM at 5×107 beads per well for three hours before gentle removal and suspension in PBS for immediate imaging.
as §2, §3, §4

[6] = tested on: carbohydrate binding domain of the mannose receptor CD206 (MR-CRD); experiment: Flow cytometry blockade of MR-CRD (CD206 carbohydrate binding domain, Fc fusion) staining of oxidised RBC; design: species or system murine; details: FC fusion pre-incubated with mannan 5 mg/ml
Method: Humanised FC fusions of murine C-type lectins (5 μg/ml, kind gift from Gordon Brown, Screening for Ligands of C-Type Lectin-Like Receptors, Elwira PyżGordon D. Brown, 2011) were incubated with RBC for 30 minutes at room temperature in calcium buffer then detected by Alexa Fluor 647 goat anti-human secondary antibody (2 μg/ml, 109-605-098, Jackson ImmunoResearch Laboratories) incubated for 30 minutes at room temperature.
as §5, §6

Chain of carbohydrate binding domain of the mannose receptor CD206 (MR-CRD) (Q61830 645-781 limits assumed): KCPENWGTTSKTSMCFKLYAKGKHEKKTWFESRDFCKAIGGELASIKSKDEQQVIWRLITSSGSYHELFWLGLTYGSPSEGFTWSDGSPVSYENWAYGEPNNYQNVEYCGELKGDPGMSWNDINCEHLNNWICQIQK

| Substance | uptake (efferocytosis) of oxidised RBC by HMDM [1] | uptake of RBC from patients with SCD by HMDM [2] | uptake of untreated RBC by HMDM [3] | blockade of GNA binding to RBC surface (FACS) [4] | uptake (efferocytosis) of oxidised RBC by HMDM ([1]; listed as Mannan) | phagocytosis of control beads by HMDM [5] | blockade of MR-CRD staining of oxidised RBC (FACS) [6] |
| --- | --- | --- | --- | --- | --- | --- | --- |
| chitin | significantly inhibited; also recorded: abrogated | significantly inhibited; also recorded: blocked | not untreated | inhibitable | – | – | – |
| laminarin | not laminarin, significantly inhibited | – | – | – | – | – | – |
| mannan | significantly inhibited; also recorded: abrogated | significantly inhibited; also recorded: blocked | not untreated | effective blockade; also recorded: inhibitable | significantly blocked uptake | no effect | effective blockade |
